The values below come from publication PMC3724348 (Biochemistry, 2013).

Data set [1] has as its system PPARγ target gene ANGPTL4 in LNCaP cells. In words: Semi-quantitative real time PCR, PPARγ target gene in LNCaP cells. The class given is cell-based, human. The settings on record: 18 h. (Real-time PCR tracks product formation cycle by cycle.)
For data set [2], the system named is TR target gene BTG2 in LNCaP cells. In words: Semi-quantitative real time PCR, TR target gene in LNCaP cells. The class given is cell-based, human. Conditions: 18 h.
In data set [3] the test system is ANGPTL4 in HT29 colon cancer cells. Conditions: GW0742 1 µM; cited from earlier work.
For data set [4], the system named is PPARγ. Conditions: HTS campaign; ref AID588537, pubchem; cited from earlier work.
The nature of a further data set: Cell viability. The class given is cell-based, human. The settings on record: human.
In a further data set the test system is HEK 293T cells. Nature of the data set: Cell viability. The class given is cell-based, human. The settings on record: GW0742 18.7 µM; CellTiter-Glo. On the technique in general: In ATP-based viability assays light output follows the ATP content of the culture.
Another data set addresses TRβ–SRC2–2 interaction (Homo sapiens, UniProt P10828). Nature of the data set: FP assay TRβ–SRC2–2 inhibition. The class given is binding.
The target of data set [5] is interaction between VDR and SRC2–3 (Homo sapiens, UniProt P11473, DEL165-215). In words: HTS FP assay, VDR–SRC2–3 inhibition. The settings on record: HTS campaign; Texas Red-labeled SRC2–3. The class given is binding.
Another data set deals with retinoid X receptor. The settings on record: HTS campaign; ref AID:588546, pubchem; cited from earlier work.
Another data set relates to HEK293T cells. Nature of the data set: Toxicity in HEK293T cells. Conditions: at a concentration of 45.8 µM; AID:602204.
In the next data set the test system is TRβ. The settings on record: HTS campaign; ref AID:588547, pubchem; cited from earlier work.
A further data set has as its system glucocorticoid receptor. The settings on record: HTS campaign; ref AID:588533, pubchem; cited from earlier work.
Data set [6] concerns the target PPARγ (Homo sapiens, UniProt P37231). In words: One-hybrid luciferase transcription assay in HEK 293T cells. The class given is cell-based.
The target of a further data set is VDR (Homo sapiens, UniProt P11473). Nature of the data set: VDR ligand competition FP assay. The class given is binding. Conditions: with respect to 100% free probe (55 mP) measured in the absence of VDR.
Data set [7] deals with AR target genes UGT1A1 and PSA in LNCaP cells. Nature of the data set: Semi-quantitative real time PCR, AR target genes in LNCaP cells. The class given is cell-based, human. The settings on record: 18 h.
Another data set concerns the target T1, PPARγ–DRIP2 interaction (Homo sapiens, UniProt P37231).
T1 sequence (P37231 238-503 limits assumed): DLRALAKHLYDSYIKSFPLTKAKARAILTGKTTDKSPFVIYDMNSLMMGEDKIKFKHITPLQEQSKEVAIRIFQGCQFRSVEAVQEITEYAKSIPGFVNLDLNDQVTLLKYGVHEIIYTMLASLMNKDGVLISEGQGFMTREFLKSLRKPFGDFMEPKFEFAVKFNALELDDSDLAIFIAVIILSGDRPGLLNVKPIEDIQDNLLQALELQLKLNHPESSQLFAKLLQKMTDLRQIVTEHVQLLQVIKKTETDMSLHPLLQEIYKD
In words: FP assay PPARγ–DRIP2. The class given is binding.

Data set [8] addresses VDR-SRC2–3 Alexa Fluor 647 interaction (Homo sapiens, UniProt P11473, DEL165-215). In words: VDR–SRC2–3 FP assay in the presence of 1 mM or 100 mM 2-mercaptoethanol. The class given is binding. The settings on record: small molecules 50 µM; Alexa Fluor 647 SRC2–3.
Data set [9] deals with VDR target genes IGFBP-3, TRPV6 and CYP24A1 in LNCaP cells. In words: Semi-quantitative real time PCR, VDR target genes in LNCaP cells. The class given is cell-based, human.
The test system of data set [10] is HL-60 cells. In words: HL-60 cell death in differentiation assay. The class given is cell-based, human. Conditions: 4 days.
In a further data set the target is VDR–SRC2 interaction (Homo sapiens, UniProt P11473, DEL165-215). In words: Western pull-down assay VDR-LBD and SRC2 bearing all three NIDs. The class given is binding.
A further data set has as its system estrogen receptor α. Conditions: HTS campaign; ref AID:588513, pubchem; cited from earlier work.
The subject of the next data set is SRC2. In words: Isothermal titration calorimetry GW0742–SRC2. The class given is binding. Background: ITC needs no label: the signal is the heat of the interaction.
The subject of data set [11] is HL-60 cells. Nature of the data set: HL60 differentiation assay. The class given is cell-based, human. The settings on record: 4 days, 1,25(OH)2D3 alone.
The mark [12] stands for this setting: GW0742 20 µM + 1,25(OH)2D3 10 nM, 18 h.

SMILES strings stand for the structures. Entries after “also recorded” stand apart in the source; their conditions may differ.

TRβ–SRC2–2 interaction, sequence (P10828 217-461 limits assumed): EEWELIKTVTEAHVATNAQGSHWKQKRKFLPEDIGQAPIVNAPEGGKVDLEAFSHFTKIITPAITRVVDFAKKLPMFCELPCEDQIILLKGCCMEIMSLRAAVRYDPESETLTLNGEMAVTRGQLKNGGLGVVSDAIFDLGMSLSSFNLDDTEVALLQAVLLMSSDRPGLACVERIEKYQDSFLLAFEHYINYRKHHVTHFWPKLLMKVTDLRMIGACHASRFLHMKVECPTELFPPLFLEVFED

On to `CN(CCOc1ccc(CC2SC(=O)NC2=O)cc1)c1ccccn1` (centres unmarked) [Rosiglitazone], for which, in data set [1] (rosiglitazone 5 µM), the ANGPTL4 expression result is given as “induced”.

With `N[C@@H](Cc1cc(I)c(Oc2ccc(O)c(I)c2)c(I)c1)C(=O)O` [T3, triiodothyronine], in data set [2] (T3 10 nM), the BTG2 expression result is listed as “down-regulated”.

With `Cc1cc(SCc2sc(-c3ccc(C(F)(F)F)c(F)c3)nc2C)ccc1OCC(=O)O` [GW0742], the ANGPTL4 activation result in data set [3] was “activation”. For the same compound, the “antagonistic activity PPARγ” value with PPARγ [4] is recorded as “Antagonistic activity”. Further, in the data set “Cell viability”, the viability at 16 h, 37.5 µM was 93 ± 3%. Further, in the data set on HEK 293T cells, the toxicity entry is “no toxicity was observed”. At TRβ–SRC2–2 interaction, it took 59.9 ± 9.5 µM to reach half-maximal inhibition (IC50). The “VDR–SRC2–3 inhibition (FP assay) IC50” value in [5] was “inconclusive”. In addition, the “antagonistic activity RxR” value with retinoid X receptor was “Antagonistic activity”. This compound also gave a cell death with HEK293T cells of 18%. Further, the “effect on rosiglitazone-induced ANGPTL4 expression” value in data set [1] (GW0742 20 µM + rosiglitazone 5 µM) is reported as “unaffected; also recorded: inconclusive”. Besides, the “antagonistic activity TRβ” value in the data set with TRβ is on record as “Antagonistic activity”. For the same compound, the “effect on T3-mediated down-regulation of BTG2” value in [2] (GW0742 20 µM + T3 10 nM) was “reversed”. The “antagonistic activity GR” value with glucocorticoid receptor is listed as “Antagonistic activity”. Further, the “concentration with significant PPARγ-mediated transcriptional inhibition” value on PPARγ [6] was above 20 µM. On VDR, the “extent of inhibition of VDR–ligand binding” value was “partial inhibition”. Besides, in data set [7] (GW0742 20 µM + DHT 10 nM), the “effect on DHT-induced PSA expression” value is “significant inhibitory effect” and the “effect on DHT-induced UGT1A1 expression” value is “significant inhibitory effect”. At PPARγ–DRIP2 interaction, this compound gave an EC50 of 2.6 µM and an IC50 above 86 µM. Besides, the “concentration with significant inhibition between PPARγ-LBD and DRIP2” value at PPARγ–DRIP2 interaction (FP assay) was above 86 µM. For the same compound, the “inhibition of VDR–SRC2–3 interaction at 100 mM ME in comparison with 1 mM ME” value in data set [8] is reported as “not influenced”. In data set [9] (setting [12]), the “effect on 1,25(OH)2D3-induced IGFBP-3 expression” value is reported as “selectively inhibited” and the “effect on 1,25(OH)2D3-induced TRPV6 expression” value is “selectively inhibited”. In addition, in data set [9] (only at 6 hours and 50 µM GW0742 + 1,25(OH)2D3 10 nM), the “effect on 1,25(OH)2D3-induced CYP24A1 expression” value is on record as “significant inhibition”. In the data set on HL-60 cells [10], the “concentration with significant HL-60 cell death” value came to 150 µM. Moreover, the “inhibition of the VDR–SRC2 interaction (pull-down)” value on VDR–SRC2 interaction (in the presence of VDR ligand) is reported as “blocked in a dose dependent manner”. Besides, on VDR–SRC2 interaction (residual bands still detected), the “concentration with significant inhibition of the VDR–SRC2 interaction” value was in the range of 80 to 120 µM. The “antagonistic activity ERα” value in the data set on estrogen receptor α was “Antagonistic activity”. In the data set with SRC2, the “interaction between GW0742 and SRC2 (ITC)” value is recorded as “no specific interaction was observed”.

As for `C=C1/C(=C\C=C2/CCC[C@]3(C)[C@@H]([C@H](C)CCCC(C)(C)O)CC[C@@H]23)C[C@@H](O)C[C@@H]1O` [1,25(OH)2D3, 1,25-dihydroxyvitamin D3], the HL-60 cell differentiation result with HL-60 cells [11] is given as “strong”. The CYP24A1 expression result in [9] (1,25(OH)2D3 10 nM, 6 hours and 18 hours) is “induction; also recorded: moderately upregulated”. In data set [9] (1,25(OH)2D3 10 nM, 18 h), the IGFBP-3 expression entry was “strongly induced” and the TRPV6 expression entry was “strongly induced”.

Consider `C[C@]12CCC(=O)C[C@@H]1CC[C@@H]1[C@@H]2CC[C@]2(C)[C@@H](O)CC[C@@H]12` [DHT, dihydrotestosterone], for which, in data set [7] (DHT 10 nM), the UGT1A1 expression result is reported as “upregulated”.

The viability is a per cent measure of how many cells are alive, often set against a control. A higher viability goes with less harm to the cells. In general, IC50 refers to the concentration that gives 50% inhibition. Read a low IC50 as greater potency. What is called EC50 is the concentration giving half of the maximal effect. Low values mean higher potency in that assay, high ones lower potency in that assay.
